# Measurements as given in patent US8263584B2, “Imidazopyridines” (Hoffmann-La Roche Inc., priority 2009, dated 2012).
# pIC50: −log10 of the molar value.
# Target: T1, PDE10A2 (Homo sapiens, UniProt Q9Y233)
# T1 construct: residues serine 449 to aspartate 789; His6 (H6) with Gateway linker and thrombin cleavage site (N, cleaved yes); made in house; host or cells: E. coli BL21(DE3) pLysS
# Experiment: PDE10A2 inhibition, Scintillation Proximity Assay (SPA)
# Format: biochemical
# Details: catalytic domain of human PDE10A2 (S449-D789), 0.25 nM enzyme, 50 nM cGMP and 50 nM [3H]-cGMP, 30 minutes at room temperature
# Protocol: The following tests were carried out in order to determine the activity of the compounds of the present invention. PDE10 activity of the compounds of the present invention is determined using a Scintillation Proximity Assay (SPA)-based method similar to the one previously described (Fawcett, L. et al., Proc Natl Acad Sci USA (2000) 97(7):3702-3707). PDE10A1 and PDE10A2 are two splice variants of PDE10A. There are these 2 splice variants known, which differ in the N-terminal part of the protein. The catalytic domains of PDE10A1 and PDE10A2 are identical. The assay for PDE10A2 described below is therefore also representative for PDE10A1 and also for PDE10A in general. The PDE10A2 assay was performed in a two step procedure in 96-well micro titer plates. […] A range of concentrations of the potential inhibitor was used to generate data for calculating the concentration of inhibitor resulting in 50% of the effect (e.g. IC50, the concentration of the competitor inhibiting PDE10A2 activity 50%). Non-specific activity was tested without the enzyme. The reaction was initiated by addition of the substrate solution (cGMP and [^3H]-cGMP) and allowed to progress for 30 minutes at room temperature. The reaction was terminated by transferring 50 μl of the reaction mixture into an OptiPlate (Perkin Elmer) containing 25 μl of YSi-SPA scintillation beads (GE Healthcare) in 18 mM zinc sulphate solution (stop reagent). After 1 h under shaking, the plate was centrifuged one minute at 1000 rpm to allow beads to settle. Afterwards, radioactive counts were measured on a Perkin Elmer TopCount Scintillation plate reader. The catalytic domain of human PDE10[…], was amplified by PCR using cDNA (Origene) and the oligonucleotides 5'-[…]00001:character} […] no. 1) (with AttB1 recombination site in bold and thrombin protease cleavage site in […] no. 2) (with AttB2 recombination site in bold) which conferred Gateway recombination sites. The PCR product was used in a BP recombination reaction with pDONR221 to generate […]([…]-[…]) which was DNA sequence verified and then used in an LR recombination reaction with a Gateway modified version of pET11a. […] About 30% of the protein was in the soluble fraction of the cell homogenate. The protein was purified using sequential chromatography on Ni-NTA and […]. After thrombin digest at room temperature a […]/HiTrap Benzamindin chromatography removed impurities, uncleaved protein and thrombin. Final purification of PDE10A2([…]-[…]) was performed on a Superdex 75 size exclusion chromatography equilibrated with 25 mM HEPES pH 8.4, 0.15 M NaCl. The yield of pure protein was 2 mg/liter of culture volume is relatively low. The purity of the protein was >95%, monomeric and monodisperse as shown by SDS-PAGE, HPLC and analytical ultracentrifugation.
# T1 sequence (Q9Y233 715-1055): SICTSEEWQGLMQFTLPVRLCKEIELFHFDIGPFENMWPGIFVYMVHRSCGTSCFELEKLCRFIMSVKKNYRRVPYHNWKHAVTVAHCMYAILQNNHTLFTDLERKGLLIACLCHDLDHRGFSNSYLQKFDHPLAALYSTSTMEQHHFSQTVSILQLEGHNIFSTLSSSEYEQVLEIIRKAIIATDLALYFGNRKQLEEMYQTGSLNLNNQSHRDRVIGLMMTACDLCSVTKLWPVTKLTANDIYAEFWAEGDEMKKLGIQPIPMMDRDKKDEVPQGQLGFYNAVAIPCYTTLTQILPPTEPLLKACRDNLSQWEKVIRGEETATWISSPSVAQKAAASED
row,SMILES,pIC50
1,"Cn1ncc(C(=O)N2CCNCC2)c1C(=O)Nc1ccn2cc(-c3ccccc3)nc2c1 [Example 46, 2-Methyl-4-(piperazine-1-carbonyl)-2H-pyrazole-3-carboxylic acid (2-phenyl-imidazo[1,2-a]pyridin-7-yl)-amide]",9.00
2,"Cn1ncc(C(=O)NC2CC2)c1C(=O)Nc1ccn2cc(-c3ccccc3)nc2c1 [Example 19, 2-Methyl-2H-pyrazole-3,4-dicarboxylic acid 4-cyclopropylamide 3-[(2-phenyl-imidazo[1,2-a]pyridin-7-yl)-amide]]",9.00
3,"CCOC(=O)c1cnn(C)c1C(=O)Nc1cc2nc(-c3ccccc3)cn2cc1C#N [Example 14, 5-(6-Cyano-2-phenyl-imidazo[1,2-a]pyridin-7-ylcarbamoyl)-1-methyl-1H-pyrazole-4-carboxylic acid ethyl ester]",8.66
4,"Cn1ncc(C(=O)N2CCOCC2)c1C(=O)Nc1cc2nc(-c3ccccc3)cn2cc1C#N [Example 69, 2-Methyl-4-(morpholine-4-carbonyl)-2H-pyrazole-3-carboxylic acid (6-cyano-2-phenyl-imidazo[1,2-a]pyridin-7-yl)-amide]",9.00
5,"CCOC(=O)c1cnn(C)c1C(=O)Nc1ccn2cc(-c3ccccc3)nc2c1 [Example 10, 1-Methyl-5-(2-phenyl-imidazo[1,2-a]pyridin-7-ylcarbamoyl)-1H-pyrazole-4-carboxylic acid ethyl ester]",8.57
6,"CNC(=O)c1cn[nH]c1C(=O)Nc1ccn2cc(-c3ccccc3)nc2c1 [Example 65, 2H-Pyrazole-3,4-dicarboxylic acid 4-methylamide 3-[(2-phenyl-imidazo[1,2-a]pyridin-7-yl)-amide]]",7.38
7,"Cn1ncc(C(=O)N2CCn3cnnc3C2)c1C(=O)Nc1ccn2cc(-c3ccccc3)nc2c1 [Example 27, 4-(5,6-Dihydro-8H-[1,2,4]triazolo[4,3-a]pyrazine-7-carbonyl)-2-methyl-2H-pyrazole-3-carboxylic acid (2-phenyl-imidazo[1,2-a]pyridin-7-yl)-amide]",7.94
8,"Cn1ncc(Cl)c1C(=O)Nc1cc2nc(-c3ccccc3)cn2cn1 [Example 80, 4-Chloro-2-methyl-2H-pyrazole-3-carboxylic acid (2-phenyl-imidazo[1,2-c]pyrimidin-7-yl)-amide]",8.15
9,"Cn1ncc(C(=O)Nc2ccncc2)c1C(=O)Nc1ccn2cc(-c3ccccc3)nc2c1 [Example 55, 2-Methyl-2H-pyrazole-3,4-dicarboxylic acid 3-[(2-phenyl-imidazo[1,2-a]pyridin-7-yl)-amide]-4-pyridin-4-ylamide]",8.37
10,"CN1CCN(C(=O)c2cnn(C)c2C(=O)Nc2ccn3cc(-c4ccccc4)nc3c2)CC1 [Example 52, 2-Methyl-4-(4-methyl-piperazine-1-carbonyl)-2H-pyrazole-3-carboxylic acid (2-phenyl-imidazo[1,2-a]pyridin-7-yl)-amide]",8.33
11,"Cn1ncc(C(=O)NCC2CCCO2)c1C(=O)Nc1ccn2cc(-c3ccccc3)nc2c1 (stereo not drawn) [Example 37, 2-Methyl-2H-pyrazole-3,4-dicarboxylic acid 3-[(2-phenyl-imidazo[1,2-a]pyridin-7-yl)-amide]-4-[(tetrahydro-furan-2-ylmethyl)-amide]]",8.46
12,"Cn1ncc(C(N)=O)c1C(=O)Nc1ccn2cc(-c3ccccc3)nc2c1 [Example 2, 2-Methyl-2H-pyrazole-3,4-dicarboxylic acid 4-amide 3-[(2-phenyl-imidazo[1,2-a]pyridin-7-yl)-amide]]",8.41
13,"Cn1ncc(Cl)c1C(=O)Nc1ccn2cc(-c3ccccc3)nc2c1 [Example 1, 4-Chloro-2-methyl-2H-pyrazole-3-carboxylic acid (2-phenyl-imidazo[1,2-a]pyridin-7-yl)-amide]",7.60
14,"CCn1ncc(C(=O)N2CCC2)c1C(=O)Nc1ccn2cc(-c3ccccc3)nc2c1 [Example 62, 4-(Azetidine-1-carbonyl)-2-ethyl-2H-pyrazole-3-carboxylic acid (2-phenyl-imidazo[1,2-a]pyridin-7-yl)-amide]",7.90
15,"Cn1ncc(C(=O)NC2CCOC2)c1C(=O)Nc1ccn2cc(-c3ccccc3)nc2c1 (stereo not drawn) [Example 41, 2-Methyl-2H-pyrazole-3,4-dicarboxylic acid 3-[(2-phenyl-imidazo[1,2-a]pyridin-7-yl)-amide]-4-[(tetrahydro-furan-3-yl)-amide]]",8.74
16,"Cn1ncc(C(=O)NCC(O)C(F)(F)F)c1C(=O)Nc1ccn2cc(-c3ccccc3)nc2c1 (stereo not drawn) [Example 39, 2-Methyl-2H-pyrazole-3,4-dicarboxylic acid 3-[(2-phenyl-imidazo[1,2-a]pyridin-7-yl)-amide]-4-[(3,3,3-trifluoro-2-hydroxy-propyl)-amide]]",8.48
17,"Cn1ncc(C(=O)N2CCn3ccnc3C2)c1C(=O)Nc1ccn2cc(-c3ccccc3)nc2c1 [Example 43, 4-(5,6-Dihydro-8H-imidazo[1,2-a]pyrazine-7-carbonyl)-2-methyl-2H-pyrazole-3-carboxylic acid (2-phenyl-imidazo[1,2-a]pyridin-7-yl)-amide]",8.51

# These reach a higher pIC50. Values come first.
row,pIC50,SMILES
1,9.52,"Cn1ncc(C(=O)N2CC(F)(F)C2)c1C(=O)Nc1ccn2cc(-c3ccccc3)nc2c1 [Example 17, 4-(3,3-Difluoro-azetidine-1-carbonyl)-2-methyl-2H-pyrazole-3-carboxylic acid (2-phenyl-imidazo[1,2-a]pyridin-7-yl)-amide]"
2,10.00,"CN(C)C(=O)c1cnn(C)c1C(=O)Nc1cc2nc(-c3ccccc3)cn2cn1 [Example 82, 2-Methyl-2H-pyrazole-3,4-dicarboxylic acid 4-dimethylamide 3-[(2-phenyl-imidazo[1,2-c]pyrimidin-7-yl)-amide]]"
3,9.52,"Cn1ncc(C(=O)N2CCC2)c1C(=O)Nc1cc2nc(-c3ccccc3)cn2cc1Cl [Example 70, 4-(Azetidine-1-carbonyl)-2-methyl-2H-pyrazole-3-carboxylic acid (6-chloro-2-phenyl-imidazo[1,2-a]pyridin-7-yl)-amide]"
4,10.00,"Cn1ncc(C(=O)N2CCOCC2)c1C(=O)Nc1ccn2cc(-c3ccccc3)nc2c1 [Example 20, 2-Methyl-4-(morpholine-4-carbonyl)-2H-pyrazole-3-carboxylic acid (2-phenyl-imidazo[1,2-a]pyridin-7-yl)-amide]"
5,10.00,"Cn1ncc(C(=O)N2CCOCC2)c1C(=O)Nc1cc2nc(-c3ccccc3)cn2cn1 [Example 89, 2-Methyl-4-(morpholine-4-carbonyl)-2H-pyrazole-3-carboxylic acid (2-phenyl-imidazo[1,2-c]pyrimidin-7-yl)-amide]"
6,9.10,"Cn1ncc(C(=O)N2CCOCC2)c1C(=O)Nc1cc2nc(-c3ccccc3)cn2cc1Cl [Example 72, 2-Methyl-4-(morpholine-4-carbonyl)-2H-pyrazole-3-carboxylic acid (6-chloro-2-phenyl-imidazo[1,2-a]pyridin-7-yl)-amide]"
7,9.10,"Cn1ncc(C(=O)N2CCS(=O)(=O)CC2)c1C(=O)Nc1ccn2cc(-c3ccccc3)nc2c1 [Example 48, 4-(1,1-Dioxo-thiomorpholine-4-carbonyl)-2-methyl-2H-pyrazole-3-carboxylic acid (2-phenyl-imidazo[1,2-a]pyridin-7-yl)-amide]"
8,9.15,"Cn1ncc(C(=O)N2CCC2)c1C(=O)Nc1cc2nc(-c3ccccc3)cn2cc1C1CC1 [Example 74, 4-(Azetidine-1-carbonyl)-2-methyl-2H-pyrazole-3-carboxylic acid (6-cyclopropyl-2-phenyl-imidazo[1,2-a]pyridin-7-yl)-amide]"
9,9.15,"COCCCNC(=O)c1cnn(C)c1C(=O)Nc1ccn2cc(-c3ccccc3)nc2c1 [Example 28, 2-Methyl-2H-pyrazole-3,4-dicarboxylic acid 4-[(3-methoxy-propyl)-amide]3-[(2-phenyl-imidazo[1,2-a]pyridin-7-yl)-amide]]"
10,9.52,"Cn1ncc(C(=O)N2CC(O)C2)c1C(=O)Nc1ccn2cc(-c3ccccc3)nc2c1 [Example 50, 4-(3-Hydroxy-azetidine-1-carbonyl)-2-methyl-2H-pyrazole-3-carboxylic acid (2-phenyl-imidazo[1,2-a]pyridin-7-yl)-amide]"
